Experimental data from patent publication US11072592B2, “Small molecules that enable cartilage rejuvenation” (The Regents of the University of California, priority 2015, dated 2021).
“Also recorded” adds a separate entry of the source. Read-outs that look alike come from different tables or passages of the source.

Experiments:
[1] = system: fetal articular cartilage explants; assay: Apoptosis / survival in fetal articular cartilage explants (TUNEL, flow cytometry); assay type: cell-based, human; conditions: for fetal chondrocyte survival: Annexin V-FITC cell sorting; for apoptotic cells: fetal cartilage explants, inhibitor 24 hours
Method: (§1) FIGS. 26A-26J. LIF/STAT3/MYC signaling is prominent in fetal articular chondrocytes and can activate a fetal-like phenotype in adult cells. (FIG. 26A) Levels of phospho-STAT3 (pSTAT3) and MYC protein were quantitated in human fetal and adult articular chondrocytes relative to histone H3. (FIG. 26B) Effects of soluble LIF receptor (sLIFR) on MYC and pSTAT3 protein levels on fetal articular chondrocytes after 72 hours. (FIG. 26C) Detection of apoptotic cells using TUNEL staining and flow cytometry analysis of fetal articular cartilage explants cultured in the absence (control) or presence of a MYC (10058-F4) or STAT3 (STATTIC) inhibitor for 24 hours. (FIG. 26D) Quantification of proliferating cells via EdU incorporation in fetal articular cartilage explants and also by flow cytometry analysis for BrdU. Scale bars represent 100 μm. (FIG. 26E) Assessment of metabolic activity of human fetal articular chondrocytes cultured in the presence or absence of MYC or STAT3 inhibitors. (FIG. 26F) Migration capacity of fetal articular chondrocytes was assessed using a Transwell® assay in the absence or presence of MYC and STAT3 inhibitors. (FIG. 26G) Protein levels of MYC and pSTAT3 were measured in adult human articular chondrocytes with and without incubation with LIF. Data are shown normalized to histone H3. (FIG. 26H) Migratory capacity of adult human articular chondrocytes in a Transwell® assay measured in the presence or absence of LIF. (FIG. 26I) Single adult human articular chondrocytes were cultured with or without LIF for 5 weeks to allow detection of colony-forming cells. (FIG. 26J) Explants of adult pig articular cartilage were incubated with EdU in the presence or absence of LIF to detect proliferating cells. Scale bars represent 25 μm.
To assess the functional consequences of LIF signaling, explants of fetal cartilage were cultured with inhibitors of MYC or STAT3 (Schust et al., 2006) and then TUNEL stained; flow cytometry was used to quantitate the results of parallel experiments. […] MYC activity has been documented previously in cancer cell lines to regulate mitochondrial function (Fan et al., 2010). […]
TdT-mediated dUTP nick-end labeling (TUNEL) or EdU assays were performed by using in situ cell death detection kit (TUNEL, Roche Diagnostics GmbH, Germany) or Click-iT® Assay Kit obtained from Invitrogen (Carlsbad, Calif.), respectively, as described in the manufacturer's protocol. […] After staining sections were analyzed using fluorescent microscopy. Apoptosis was evaluated by flow cytometry with a Fortessa (BD Biosciences, San Jose, Calif.) cytometer using the Annexin V-FITC (Miltenyi Biotec, San Diego, Calif.) antibody. […]

fetal cartilage explants = assay: Proliferation (BrdU, EdU) in fetal cartilage explants; assay type: cell-based, human
Method: as §1, with “Data are shown normalized to histone H3.” left out, “(FIG. 26I) Single adult human articular chondrocytes were cultured with or without LIF for 5 weeks to allow detection of colony-forming cells. (FIG. 26J) Explants of adult pig articular cartilage were incubated with EdU in the presence or absence of LIF to detect proliferating cells. Scale bars represent 25 μm.” left out

[2] = system: human fetal articular chondrocytes; assay: Cellular metabolism (Seahorse), human fetal articular chondrocytes; assay type: cell-based
Method: The mitochondrial assay cellular oxygen consumption and mitochondrial function was carried out to measure basal respiration using XF24 instrument (Seahorse Biosciences) according to manufacturer instructions. Tested cells (100,000 cells per well) we plated into 24-well test plates 48 hours prior to experimentation. Oxygen consumption rates and extracellular acidification rates were measured every 10 minutes for up to 60 minutes (Rate 1-6).

[3] = system: fetal BMPR1B+ chondrocytes; assay: Clonogenic potential of fetal chondrocytes; assay type: cell-based, human
Excerpt: FIGS. 12A-12D. […] Cell sorting results for control (FIG. 12A), p-STAT3 inhibitor (FIG. 12B) and c-MYC inhibitor (FIG. 12C). y-axis: FSC (forward scatter). x-axis: increasing concentration of Annexin V-FITC. (FIG. 12D) Histogram depicting % clonogenic cells (fetal BMPR1B+ chondrocytes) under: control, p-STAT3 and c-MYC inhibitor conditons.
To test the ability of LIF to stimulate LIFR^+ cells and cause their activation in situ, we exposed human adult articular cartilage cells to high doses of LIF for 72 hours (FIG. 5A).
For clonal assays cartilage cells were sorted by FACS and deposited into 96-well culture plates at 1 cell/well in DMEM/F12 culture medium supplemented with 1% FCS with or without LIF or RCGD 423. After 4 weeks clones (colonies with 50 cells or more) were counted using light microscopy in at least 300 wells for each culture condition.

[4] = system: MAPK, AKT, NF-κB pathways; assay: Western blot of MAPK, AKT and NF-κB signaling in adult pig articular chondrocytes; assay type: cell-based; conditions: 24 hours
Method: (§2) FIGS. 30A-30B. […] (FIG. 30A) Adult pig articular chondrocytes were cultured for 24 hours with the indicated cytokines or RCGD 423 and the levels of pSTAT3 and MYC were measured with respect to histone H3. Representative data for other proteins in the MAPK (p38 and MEK1/2), AKT (phospho-AKT; pAKT) or NF-KB (NF-KB p65) are also shown. (FIG. 30B) Levels of transcription of genes indicative of a catabolic response were determined via quantitative PCR in adult pig articular chondrocytes treated with OSM, IL-6, TNF-α, LIF or RCGD 423. Data are represented at mean±SD.
(§3) Cartilage degeneration is generally considered a feed-forward process, in which small losses of chondrocytes result in microenvironmental changes including induction of an inflammatory response and other pro-catabolic events (Hunziker, 2002). In turn, these alterations in the joint milieu promote production of matrix degrading proteins including MMPs (collagenases) and proteins of the ADAMTS family (aggrecanases). LIF has been implicated in promoting this cycle of matrix destruction during the pathogenesis of osteoarthritis (Hui et al., 2000; Lotz et al., 1992), although its role in this process has been controversial. In order to better understand the mechanism of action of LIF, RCGD 423 and known pro-inflammatory cytokines in the promotion of degeneration, we stimulated adult pig articular chondrocytes with these molecules and quantitated the levels of activated downstream proteins that mediate the cellular signaling response (FIG. 30A).
(§4) Treated and non-treated ells were lysed in RIPA Lysis and Extraction Buffer (Pierce, Rockford, Ill.) containing protease inhibitors (Pierce) followed by sonication with a 15-second pulse at a power output of 2 using the VirSonic 100 (SP Industries Company, Warminster, Pa.). Protein concentrations were determined by BCA protein assay (Pierce). Proteins were resolved with SDS-PAGE utilizing 4-15% Mini-PROTEAN TGX Precast Gels and transferred to Trans-Blot Turbo Transfer Packs with a 0.2-μm pore-size nitrocellulose membrane. The SDS-PAGE running buffer, 4-15% Mini-PROTEAN TGX Precast Gels, Trans-Blot Turbo Transfer Packs with a 0.2-μm pore-size nitrocellulose membrane were purchased from Biorad (Hercules, Calif.). Nitrocellulose membranes were blocked in 5% nonfat milk in 0.05% (v/v) Tween 20 (PBST) (Corning, Manassas, Va.). Membranes were then incubated with primary antibodies phospho-STAT3 (#9131), MYC (#5605), NF-κB p65 (#D14E12), pAKT (#9272) Histone 3 (#9715) from Cell Signaling, (Danvers, Mass.); MEK1/2 (ab70613) and p38 (ab795) from Abcam (Cambridge, Mass.) overnight. After washing in PBS containing 0.05% (v/v) Tween 20 (PBST), membranes were incubated with Goat anti-Rabbit IgG (H+L) Secondary Antibody (Thermo Scientific Rockford, Ill.). After washing, membranes were developed with the Clarity Western ECL Blotting Substrate (Hercules, Calif.).

[5] = system: MMP13, ADAMTS4 and ADAMTS5; assay: Quantitative PCR of catabolic genes in adult pig articular chondrocytes; assay type: cell-based
Method: as §2, §3
Total RNA was extracted using RNeasy Micro Kit (QIAGEN, Valencia, Calif.) according to the manufacturer's protocol. Quantitative reverse transcription PCR was performed using Bio-Rad T100 Thermal Cycler (Bio-Rad, Hercules, Calif.). Primer sequences are available upon request.

pSTAT3 and MYC = assay: Western blot of pSTAT3 and MYC in adult pig articular chondrocytes; assay type: cell-based; conditions: for levels of MYC / levels of pSTAT3: adult pig articular chondrocytes, treated vs untreated, relative to histone H3
Excerpt: Only early passages of chondrocytes (passage 0-2) were used for experimentation to avoid de-differentiation and loss of cartilage phenotype (Wu et al., 2014). Cartilage explants were made using 1, 2 or 8 mm biopsy punch and wet weight of each explant determined prior to experimentation. For cell isolation cartilage tissue was digested as described previously (Wu et al., 2015). Postnatal paraffin embedded joint and growth plate specimens were kindly donated by Dr Marcel Karperien from the University of Twente (Netherlands) and Dr Nick Bernthal from University of California Los Angeles. All donated material was anonymous and carried no personal identifiers. Cell culture reagents were purchased from Life Technologies, Inc. (Grand Island, N.Y.). Growth factors LIF, OSM, IL-6, TNF-α, IL-1β were purchased from Life Technologies, Inc (Grand Island, N.Y.). STATTIC, 10058-F4, SCl44 hydrochloride, and CP-690550 were purchased from Sigma Aldrich (St. Louis, Mo.). RCGD 423 (N-(4-Bromophenyl)-4-phenyl-1,3-thiazol-2-amine) was synthesized and provided by MolPort (Riga, Latvia). Fetal, adult and pig chondrocytes were cultured in DMEM F12 medium containing 10% (vol/vol) fetal bovine serum and 1% Penicillin-Streptomycin (vol/vol) at 37° C. in a humidified atmosphere of 95% aid and 5% CO2. Media was replenished with DMEM F12 medium containing 1% (vol/vol) fetal bovine serum and 1% Penicillin-Streptomycin (vol/vol) once treatments were added. For 3-dimensional (3D) cell cultures adult human articular chondrocytes were incubated with or without RCGD 423 using 10% solution of Mebiol® hydrogel from Cosmo Bio (Carlsbad, Calif.) in X-vivo 15 serum free medium from Lonza (Walkersville, Md.) as described previously (Wu et al., 2014).
as §4

BMPR1B+ chondrocytes = assay: Retention of BMPR1B+ chondrocytes in culture (flow cytometry); assay type: cell-based, pig
Method: FIG. 35. RCGD 423 Preserves BMPR1B+ Chondrocytes in Culture. Adult pig chondrocytes were cultured in the presence of various cytokines or RCGD 423 and the number of cells expressing BMPR1B were quantitated using flow cytometry. Know mitogens for cartilage, including PDGF-BB and FGF2, promoted dramatic loss of BMPR1B^+ cells. In contrast, RCGD 423 and LIF acted to maintain cells with the BMPR1B+ phenotype.
BMPR1B+LIFR+ human adult articular chondrocytes were sorted using FACS and deposited in 96-well culture plates at density 10,000 cells per well in DMEM/F12 culture medium (Invitrogen) supplemented with 1% FBS. Growth factors or RCGD 423 were added at the time of plating. After 1, 3 and 7 days cultures were re-analyzed with FACS using an antibody against BMPR1B.

**Q.** How did the fetal chondrocyte survival [1] turn out when O=[N+]([O-])c1ccc2c(c1)S(=O)(=O)C=C2 [STATTIC] was run?
**A.** markedly reduced

**Q.** And the apoptotic cells [1]?
**A.** strongly significant increases

**Q.** And the “incorporation of BrdU and EdU” value (fetal cartilage explants)?
**A.** greatly reduced

**Q.** What about the glycolysis [2] of the same molecule?
**A.** unaffected

**Q.** And the “clonogenic / clonal potential of fetal chondrocytes” value (“clonogenic / clonal potential” below) [3]?
**A.** dramatically reduced

**Q.** And the “clonogenic / clonal potential” value ([3]; listed as p-STAT3 inhibitor)?
**A.** markedly reduced

**Q.** With TNF-α as the molecule, how does the NF-κB protein [4] read?
**A.** increased

**Q.** What about the “activation of AKT” value [4] of the same molecule?
**A.** strong activation

**Q.** And the “activation of the MAPK pathway” value [4]?
**A.** strong activation

**Q.** What about the “transcription of matrix degrading enzymes (MMP13, ADAMTS4 and ADAMTS5)” value [5] of the same molecule?
**A.** upregulation

**Q.** And the “levels of MYC” value (pSTAT3 and MYC)?
**A.** inhibit accumulation

**Q.** And the “levels of pSTAT3” value (pSTAT3 and MYC)?
**A.** inhibit accumulation

**Q.** What about the “increases in pSTAT3 and MYC in the presence of RCGD 423” value (pSTAT3 and MYC; co-stimulation of cytokine and RCGD 423) of the same molecule?
**A.** completely suppressed; also recorded: prevents the increases

**Q.** Which fetal chondrocyte survival [1] does the source give for CCc1ccc(/C=C2/SC(=S)NC2=O)cc1 [10058-F4] here?
**A.** markedly reduced

**Q.** And the apoptotic cells [1]?
**A.** strongly significant increases

**Q.** What about the “incorporation of BrdU and EdU” value (fetal cartilage explants) of the same molecule?
**A.** greatly reduced

**Q.** What about the glycolysis [2] of the same molecule?
**A.** unaffected

**Q.** What about the “clonogenic / clonal potential” value [3] of the same molecule?
**A.** markedly reduced

**Q.** With FGF2: known mitogen for cartilage as the molecule, how does the “BMPR1B+ chondrocytes in culture” value (BMPR1B+ chondrocytes) read?
**A.** dramatic loss

**Q.** For IL-6: IL-6 family cytokine, which “activation of AKT” value [4] is on record?
**A.** stimulated the activation

**Q.** And the “activation of the MAPK pathway” value [4]?
**A.** stimulated the activation

**Q.** And the “transcription of matrix degrading enzymes (MMP13, ADAMTS4 and ADAMTS5)” value [5]?
**A.** neither cytokine resulted in substantial transcriptional upregulation

**Q.** What about the “levels of MYC” value (pSTAT3 and MYC) of the same molecule?
**A.** increase

**Q.** And the “levels of pSTAT3” value (pSTAT3 and MYC)?
**A.** increase
